# Patent publication US20240139149A1, “THERAPEUTIC USES OF UROLITHIN DERIVATIVES” (Vandria SA, priority 2022, published 2024)
# “Also recorded” adds a separate entry of the source.
# How the values were obtained:
# [1] = system: human CD8+ T cells; assay: Human T cells stimulated with αCD3/αCD28 in presence of UA; format: cell-based
# Experimental: (§1) Splenic murine T cells were isolated from mice aged 6-20 weeks by negative selection with EasySep mouse T cell isolation kit (Stem cell) according to the manufacturer's instructions. To monitor T cell proliferation, purified T cells were loaded with CellTrace Violet (C34557 ThermoFisher Scientific). T cell activation was initiated using αCD3/CD28 activation beads (11456D; ThermoFisher Scientific) at a ratio of 25 μl dynabeads per 0.5×106 T-cells. Cells were activated with 25-50 μM Urolithin A (Tocris) or DMSO in T cell activation Medium (RPMI (ThermoFisher Scientific) 10% FBS (South America origin), 10 mM Hepes (Sigma), 1×Non-Essential Amino Acid, 1 mM Sodium Pyruvate, 50 µM β-Mercaptoethanol, 100 U/mL penicillin, 100 μg/mL streptomycin and 2 mM Glutamax (ThermoFisher Scientific) for the indicated durations. In selected experiments, cells were stimulated in the presence of inhibitors, namely TCFli (ICG-001; SelleckChem; […]) and PGC-lai (SR-18292, Sigma-Aldrich; […]). For subsequent analysis, activating beads were magnetically removed prior antibody staining. For human T cells, peripheral blood mononuclear cells were purified with a Ficoll-Paque (GE healthcare) gradient. T cells were enriched with EasySep Human T Cell Isolation Kit (StemCell) and activated with dynabead Human T-Activator CD3/CD28 for T Cell Expansion and Activation Kit (11131D; ThermoFisher Scientific), similar to murine T cell stimulation. When the subsequent activation and expansion of CAR T cells was studied, plates were coated with 1 μg/mL anti-human CD3 (αCD3; clone OKT3) and thawed PBMC were cultivated with […] anti-human CD28 (αCD28; 15E8, both Miltenyi Biotec) containing media for three days. (NutriT media (4Cell® Nutri-T media (Sartorius) containing 0.5% penicillin/streptomycin) supplemented with IL-7 (25 U/mL) and IL-15 […] (all Miltenyi Biotec)).
# Tumors were minced and digested with Tumor & Tissue Dissociation Reagent (BD Horizon) for 30 min. The remaining organ pieces were filtered through a 70 µm cell strainer. Cells were then washed with PBS 1% BSA and 2 mM EDTA. […]
# [2] = system: splenic murine T cells; assay: Murine T cells stimulated with αCD3/αCD28 in presence of UA; format: cell-based
# Experimental: as §1
# Tumors were minced and digested with Tumor & Tissue Dissociation Reagent (BD Horizon) for 30 min. The remaining organ pieces were filtered through a 70 µm cell strainer. Cells were then washed with PBS 1% BSA and 2 mM EDTA. Immune cells were enriched on a 30%/40%/75% Percoll gradient after a 1700 rpm 17 min centrifugation. Then, tumor immune filtrates or activated T cells were stained with Fixable Viability Dye-eF780 (65-0865-14; eBioscience), αCD45-FITC (30-F11; 11-0451-85; eBioscience), αCD11b-BV650 (M1/70; 56340; BD) α-CD11c-BV785 (HL3; 563735; BD), aLy6G-BV605 (53-6.7; 563005; BD), aLy6C-AF700 (HK1.4; 128024; Biolegend), aF4/80-PE (BM8; 12-4801-82, eBioscience), aPD-L1-PECy7 (MIH5; 25-5982-80, eBioscience); or with Fixable Viability Dye-eF780 (ebioscience), αCD45-BV786 (30-F11; 564225; BD), αCD4-BUV496 (GK1.5; 564667; BD), αCD8-BV605 (100744; Biolegend), aPD1-APC (J43; 17-9985-82; eBioscience), aTIM-3-PECy7 (RMT3-23; 119715; Biolegend), aCTLA4-PE (UC10-4B9; 106305; Biolegend) and aLag3-BV421 (C9B7W; 125221, Biolegend); or with Fixable Viability Dye-eF780 (eBioscience), αCD4-FITC (H129.19; 553650; BD), αCD8-APC (53-6.7; 17-0081-83; eBioscience), αCD44-AF400 (IM7; 103026; Biolegend), αCD62L-BV785 (MEL-14; 104440; Biolegend), αSca-1-PerCP-Cy5.5 (D7; 45-5981-82; eBioscience), αCD95-PE (Jo2; 554258; BD); or with Fixable Viability Dye-eF780 (eBioscience), αCD8-BV650 (53-6.7; 563234; BD), αCD4-BUV496 (GK1.5; 564667; BD), αCD127-APC (A7R34; 17-1271-82; eBioscience), αCD95-FITC (SA367H8;152605; Biolegend), αCD44-AF400 (IM7; 103026; Biolegend), αCD62L-BV785 (MEL-14; 104440; Biolegend), αSca-1-PerCP-Cy5.5 (D7; 45-5981-82; eBioscience) followed by intracellular staining of aTCF1-PE (S33-966; 564217; BD), or PGC-1α (sc-518025; D-5; santa cruz), or aCyclinD1 (MA5-28534, DCS-6; Invitrogen) with transcription factor buffer set kit (BD Biosciences). To study cytokine expression, tumor immune infiltrates were stimulated ex vivo with 20 ng/mL PMA and […] Ionomycin (Sigma) for 3 h in T cell activation medium with Brefeldin A (Biolegend). […]
structure (smiles),measurement,setting,value
"O=c1oc2cc(O)ccc2c2ccc(O)cc12 [UA, Urolithin A]",TCF1 expression in human CD8+ T cells,[1]; after 48 hours,increased
same,mitochondrial membrane potential of human CD8+ T cells,[1]; after 48 hours,decreased
same,frequency of human TSCM cells (CD45RA+CCR7HiCD62L+CD95+CD8+),"[1]; five out of five individual donors, 48 h",increased the frequency
same,lysosome formation in CD8+ T cells,"[2]; 6 h, UA 50 μM",enhanced
same,phosphorylation of Stat1,"[2]; 6 h, UA 50 μM vs vehicle",equal phosphorylation
same,Parkin protein expression,"[2]; 24 h, UA 50 μM",stabilized
same,PGC-1α in Pink1−/− or Pgam5−/− CD8+ T cells,"[2]; 48 h, UA 50 μM",failed to enhance
same,cyclin D1 expression,"[2]; 48 h, UA 50 μM",reduced
same,CD8+ T cell division / proliferation,[2]; 72 h,restricted; also recorded: restricts T cell proliferation
same,central memory cells (TCM),"[2]; CD8+ T cells, αCD3/αCD28",reduction
same,frequency of effector memory cells (TEM),"[2]; CD8+ T cells, αCD3/αCD28",remained unaltered
same,naïve CD44loCD62Lhi T cells,"[2]; CD8+ T cells, αCD3/αCD28",significant increase
same,number of CD44-CD62L+Sca1hi TSCM,"[2]; CD8+ T cells, αCD3/αCD28, up to 72 hours",significantly increased
same,UA-dependent expansion of CD44-CD62L+Sca1Hi TSCM cells in Pgam5−/− T cells,[2]; Pgam5−/− CD8+ T cells,blocked
same,TSCM phenotype in Pink1−/− CD8+ T cells,"[2]; Pink1−/− CD8+ T cells, presence of UA",failed to exhibit a TSCM phenotype
same,UA-induced lysosome formation and decrease in mitochondrial content in Pink1−/− T cells,[2]; Pink1−/− T cells,prevented
same,expression of genes that code for immune checkpoints and effector molecules,"[2]; RNA sequencing, 48 hours",reduced
same,β-catenin phosphorylation,[2]; after 6 hours,marked decrease
same,mitochondrial content in CD8+ T cells,[2]; after 24 hours,loss of mitochondrial content in a dose-dependent manner
same,PGC-1α expression,"[2]; prolonged UA administration in vitro (48 h, 50 μM)",marked upregulation
same,transcription of Wnt target genes,"[2]; qPCR, 24 h after stimulation",increased transcription
same,Pgam5 localization,"[2]; sub-cellular fractionation immunoblot and immunofluorescence, 6 h",rapidly released into the cytoplasma
same,T cell death in vitro,[2]; various concentrations of UA,dose-dependent T cell death
same,mitochondrial membrane potential in CD8+ T cells,[2]; within six hours after UA administration,reduction
same,TSCM formation in CD4+ cells,[2]; αCD3/αCD28,did not promote enhanced TSCM formation
same,"differentiation into effector T cells (Granzyme B, IFNγ)","[2]; αCD3/αCD28 beads, 48 h",blocked
same,"Atg5, Atg7, p62, Lamp2 and Pink1 gene expression","[2]; αCD3/αCD28 stimulated T cells, 24 h, UA 50 μM",significant upregulation
